pKd: −log10 of the molar value. “And” between values parts separate entries of the source, which are not always exact repeats. Equal values may be shown once. Where a name gives a salt, the structure may show the parent alone.

For one assay, the target named is human TYK2 (JH2domain-pseudokinase) (Homo sapiens (Human), UniProt P29597). Briefly: TYK2 JH2 Domain Binding Assay (KINOMEscan competition binding). The settings on record: KINOMEscan; 11-point 3-fold dilution, top concentration 30,000 nM; Kd measurements in duplicate; read-out: TYK JH2 (Kd). On the procedure: Binding constants for compounds disclosed herein may be determined by the KINOMEscan® assay developed by DiscoveRx. KINOMEscan® is based on a competition binding assay that quantitatively measures the ability of a compound to compete with an immobilized, active-site directed ligand. The assay is performed by combining three components: DNA-tagged kinase; immobilized ligand; and a test compound. The ability of the test compound to compete with the immobilized ligand is measure via quantitative PCR of the DNA tag.
Sequence of human TYK2 (JH2domain-pseudokinase) (P29597 556-888): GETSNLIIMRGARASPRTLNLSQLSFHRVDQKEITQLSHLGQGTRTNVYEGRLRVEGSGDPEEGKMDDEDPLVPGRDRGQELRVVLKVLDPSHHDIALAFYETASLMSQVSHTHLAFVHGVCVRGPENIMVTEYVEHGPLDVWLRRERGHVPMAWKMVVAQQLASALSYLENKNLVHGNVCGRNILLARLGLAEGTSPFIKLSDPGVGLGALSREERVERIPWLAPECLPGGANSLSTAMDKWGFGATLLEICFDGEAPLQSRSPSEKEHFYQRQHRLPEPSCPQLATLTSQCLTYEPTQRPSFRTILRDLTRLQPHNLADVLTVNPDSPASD
Binding constants for compounds disclosed herein against the JH2 domain are determined by the following protocol for a KINOMEscan® assay (DiscoveRx). A fusion protein of a partial length construct of human TYK2 (JH2domain-pseudokinase) (amino acids G556 to D888 based on reference sequence NP 003322.3) and the DNA binding domain of NFkB is expressed in transiently transfected HEK293 cells. From these HEK 293 cells, extracts are prepared in M-PER extraction buffer (Pierce) in the presence of Protease Inhibitor Cocktail Complete (Roche) and Phosphatase Inhibitor Cocktail Set II (Merck) per manufacturers' instructions. The TYK2 (JH2domain-pseudokinase) fusion protein is labeled with a chimeric double-stranded DNA tag containing the NFkB binding site (5′-GGGAATTCCC-3′) fused to an amplicon for qPCR readout, which is added directly to the expression extract (the final concentration of DNA-tag in the binding reaction is 0.1 nM).
Streptavidin-coated magnetic beads (Dynal M280) are treated with a biotinylated small molecule ligand for 30 minutes at room temperature to generate affinity resins for the binding assays. The liganded beads are blocked with excess biotin and washed with blocking buffer (SeaBlock (Pierce), 1% BSA, 0.05% Tween 20, 1 mM DTT) to remove unbound ligand and to reduce nonspecific binding.
Extracts are used directly in binding assays without any enzyme purification steps at a >10,000-fold overall stock dilution (final DNA tagged enzyme concentration<0.1 nM). Extracts are loaded with DNA-tag and diluted into the binding reaction in a two-step process. First extracts are diluted 1:100 in 1× binding buffer (PBS/0.05% Tween 20/10 mM DTT/0.1% BSA/[…] sonicated salmon sperm DNA) containing 10 nM DNA-tag. This dilution is allowed to equilibrate at room temperature for 15 minutes and then subsequently diluted 1:100 in 1× binding buffer. Test compounds are prepared as 111× stocks in 100% DMSO. Kds are determined using an 11-point 3-fold compound dilution series with three DMSO control points. All compounds for Kd measurements are distributed by acoustic transfer (non-contact dispensing) in 100% DMSO. The compounds are then diluted directly into the assays such that the final concentration of DMSO is 0.9%. All reactions performed in polypropylene 384-well plates. Each is a final volume of 0.02 mL. Assays are incubated with shaking for 1 hour at room temperature. Then the beads are pelleted and washed with wash buffer (lx PBS, 0.05% Tween 20) to remove displaced kinase and test compound. The washed beads are re-suspended in elution buffer (lx PBS, 0.05% Tween 20, 0.5 μM non-biotinylated affinity ligand) and incubated at room temperature with shaking for 30 minutes. The kinase concentration in the eluates is measured by qPCR. qPCR reactions are assembled by adding 2.5 μL of kinase eluate to 7.5 μL of qPCR master mix containing 0.15 μM amplicon primers and 0.15 μM amplicon probe. The qPCR protocol consists of a 10-minute hot start at 95° C., followed by 35 cycles of 95° C. for 15 seconds, 60° C. for 1 minute.
Test compounds are prepared as 111× stocks in 100% DMSO. Kds are determined using an 11-point 3-fold compound dilution series with three DMSO control points. All compounds for Kd measurements are distributed by acoustic transfer (non-contact dispensing) in 100% DMSO. The compounds are then diluted directly into the assays such that the final concentration of DMSO is 0.9%. […]
On to `CNC(=O)c1cnc(N2CC[C@H](C(=O)NC)C2)nc1Nc1ccc(C2CC2)nc1` [Compound 6, (S)-4-((6-cyclopropylpyridin-3-yl)amino)-N-methyl-2-(3-(methylcarbamoyl)pyrrolidin-1-yl)pyrimidine-5-carboxamide], for which the pKd (as a rule, the negative decadic logarithm of the Kd, by convention in mol/L) is 6.37.
As for `CNC(=O)c1cnc(N2CC(C(=O)NC)C2)nc1Nc1cccc(-c2ncc(F)cn2)c1OC` [Compound 49, 4-((3-(5-fluoropyrimidin-2-yl)-2-methoxyphenyl)amino)-N-methyl-2-(3-(methylcarbamoyl)azetidin-1-yl)pyrimidine-5-carboxamide], the pKd was 8.64.
On the same count and under the same terms, the result for `CNC(=O)c1cnc(N2CC[C@@H](C(=O)NC)C2)nc1Nc1cccc(-c2ncc(F)cn2)c1OC` [Compound 5, (R)-4-((3-(5-fluoropyrimidin-2-yl)-2-methoxyphenyl)amino)-N-methyl-2-(3-(methylcarbamoyl)pyrrolidin-1-yl)pyrimidine-5-carboxamide] reads 9.16; that for `CNC(=O)c1cnc(N2CCN(C(C)=O)CC2C)nc1Nc1ccc(C2CC2)nc1` (centres unmarked) [Compound 70, 2-(4-acetyl-2-methylpiperazin-1-yl)-4-((6-cyclopropylpyridin-3-yl)amino)-N-methylpyrimidine-5-carboxamide], 5.40.
Regarding `CS(=O)(=O)c1ccccc1Nc1nc(N2CCCNCC2)ncc1C(N)=O` [Compound 79, 2-(1,4-diazepan-1-yl)-4-((2-(methylsulfonyl)phenyl)amino)pyrimidine-5-carboxamide hydrochloride], the pKd was 5.77.
For the compound `COc1c(Nc2nc(N3CCN(C(C)=O)CC3C)ncc2C(N)=O)cccc1-c1ncc(F)cn1` (centres unmarked) [Compound 60, 2-(4-acetyl-2-methylpiperazin-1-yl)-4-((3-(5-fluoropyrimidin-2-yl)-2-methoxyphenyl)amino)pyrimidine-5-carboxamide], the negative-log Kd (pKd) is 8.70.
On the same count and under the same terms, the result for `CNC(=O)c1cnc(N2CCC(C(=O)NC)C2)nc1Nc1ccc(C2CC2)nc1` (centres unmarked) [Compound 1, 4-((6-cyclopropylpyridin-3-yl)amino)-N-methyl-2-(3-(methylcarbamoyl)pyrrolidin-1-yl)pyrimidine-5-carboxamide] reads 6.77; that for `COc1ccccc1Nc1nc(N2CCCN(C(C)=O)CC2)ncc1C(N)=O` [Compound 58, 2-(4-acetyl-1,4-diazepan-1-yl)-4-((2-methoxyphenyl)amino)pyrimidine-5-carboxamide], 5.74.
On the same count and under the same terms, the result for `CNC(=O)c1cnc(N2CCCNCC2)nc1Nc1ccccc1S(C)(=O)=O` [Compound 67, 2-(1,4-diazepan-1-yl)-N-methyl-4-((2-(methylsulfonyl)phenyl)amino)pyrimidine-5-carboxamide hydrochloride] reads 5.47; that for `CNC(=O)C1CN(c2ncc(C(N)=O)c(Nc3cccc(-c4ncc(F)cn4)c3OC)n2)C1` [Compound 48, 4-((3-(5-fluoropyrimidin-2-yl)-2-methoxyphenyl)amino)-2-(3-(methylcarbamoyl)azetidin-1-yl)pyrimidine-5-carboxamide], 9.30; that for `COc1c(Nc2nc(N3CCN(C(=O)OC(C)(C)C)CC3C)ncc2C(N)=O)cccc1-c1ncc(F)cn1` (centres unmarked) [Compound 37, Tert-Butyl 4-(5-carbamoyl-4-((3-(5-fluoropyrimidin-2-yl)-2-methoxyphenyl)amino)pyrimidin-2-yl)-3-methylpiperazine-1-carboxylate], 7.47.
Regarding `CNC(=O)c1cnc(N2CCCN(C(C)=O)CC2)nc1Nc1ccccc1S(C)(=O)=O` [Compound 75, 2-(4-acetyl-1,4-diazepan-1-yl)-N-methyl-4-((2-(methylsulfonyl)phenyl)amino)pyrimidine-5-carboxamide], the negative logarithm of the Kd (pKd) is 5.89.
Same read-out and setting: for `COc1c(Nc2nc(N3CCCNCC3)ncc2C(N)=O)cccc1-c1ncc(F)cn1` [Compound 73, 2-(1,4-diazepan-1-yl)-4-((3-(5-fluoropyrimidin-2-yl)-2-methoxyphenyl)amino)pyrimidine-5-carboxamide Hydrochloride] the value was 6.82; for `CC(=O)N1CCCN(c2ncc(C(N)=O)c(Nc3ccccc3S(C)(=O)=O)n2)CC1` [Compound 80, 2-(4-acetyl-1,4-diazepan-1-yl)-4-((2-(methylsulfonyl)phenyl)amino)pyrimidine-5-carboxamide], 6.02.
Same read-out and setting: for `CNC(=O)[C@H]1CCN(c2ncc(C(N)=O)c(Nc3ccc(C4CC4)nc3)n2)C1` [Compound 3, (S)-4-((6-cyclopropylpyridin-3-yl)amino)-2-(3-(methylcarbamoyl)pyrrolidin-1-yl)pyrimidine-5-carboxamide] the value was 7.27; for `CNC(=O)[C@@H]1CCN(c2ncc(C(N)=O)c(Nc3cccc(-c4ncc(F)cn4)c3OC)n2)C1` [Compound 53, (R)-4-((3-(5-fluoropyrimidin-2-yl)-2-methoxyphenyl)amino)-2-(3-(methylcarbamoyl)pyrrolidin-1-yl)pyrimidine-5-carboxamide], 9.96.
Turning to `CNC(=O)c1cnc(N2CCN(C(=O)OC(C)(C)C)CC2C)nc1Nc1ccccc1S(C)(=O)=O` (centres unmarked) [Compound 18, Tert-Butyl 3-methyl-4-(5-(methylcarbamoyl)-4-((2-(methylsulfonyl)phenyl)amino)pyrimidin-2-yl)piperazine-1-carboxylate], the negative-log Kd (pKd) was 6.36.
Same read-out and setting: the result for `CNC(=O)c1cnc(N2CCNCC2C)nc1Nc1ccccc1OC` (centres unmarked) [Compound 31, 4-((2-methoxyphenyl)amino)-N-methyl-2-(2-methylpiperazin-1-yl)pyrimidine-5-carboxamide Hydrochloride] reads 5.32; that for `CNC(=O)[C@H]1CCN(c2ncc(C(N)=O)c(Nc3cccc(-c4ncc(F)cn4)c3OC)n2)C1` [Compound 52, (S)-4-((3-(5-fluoropyrimidin-2-yl)-2-methoxyphenyl)amino)-2-(3-(methylcarbamoyl)pyrrolidin-1-yl)pyrimidine-5-carboxamide], 8.80.
With `CCOC(=O)C1CCN(c2ncc(C(N)=O)c(Nc3ccccc3OC)n2)CC1` [Compound 45, Ethyl 1-(5-carbamoyl-4-((2-methoxyphenyl)amino)pyrimidin-2-yl)piperidine-4-carboxylate], the negative-log Kd (pKd) is 6.70.
On to `CNC(=O)c1cnc(N2CCC(C(=O)O)CC2)nc1Nc1ccccc1OC` [Compound 33, 1-(4-((2-methoxyphenyl)amino)-5-(methylcarbamoyl)pyrimidin-2-yl)piperidine-4-carboxylic Acid], for which the negative-log Kd (pKd) is 6.15.
In the case of `CNC(=O)c1cnc(N2CCCNCC2)nc1Nc1ccccc1OC` [Compound 29, 2-(1,4-diazepan-1-yl)-4-((2-methoxyphenyl)amino)-N-methylpyrimidine-5-carboxamide], the pKd was 5.34.
`COc1c(Nc2nc(N3CCNCC3C)ncc2C(N)=O)cccc1-c1ncc(F)cn1` (centres unmarked) [Compound 57, 4-((3-(5-fluoropyrimidin-2-yl)-2-methoxyphenyl)amino)-2-(2-methylpiperazin-1-yl)pyrimidine-5-carboxamide]: the negative logarithm of the Kd (pKd) is 7.31.
With `NC(=O)c1cnc(N2CCCNCC2)nc1Nc1ccc(C2CC2)nc1` [Compound 46, 4-((6-cyclopropylpyridin-3-yl)amino)-2-(1,4-diazepan-1-yl)pyrimidine-5-carboxamide Hydrochloride], the negative-log Kd (pKd) was 5.18.
Still for that read-out and setting: for `CNC(=O)c1cnc(N2CCCN(C(C)=O)CC2)nc1Nc1ccccc1OC` [Compound 24, 2-(4-acetyl-1,4-diazepan-1-yl)-4-((2-methoxyphenyl)amino)-N-methylpyrimidine-5-carboxamide] the value was 5.31.

The same assay, now with this note: footnote a: the two measurements averaged for Cmpd. No. 5; read-out: TYK JH2 (Kd, nM), individual measurements.
On to `CNC(=O)c1cnc(N2CC[C@@H](C(=O)NC)C2)nc1Nc1cccc(-c2ncc(F)cn2)c1OC` [Compound 5, (R)-4-((3-(5-fluoropyrimidin-2-yl)-2-methoxyphenyl)amino)-N-methyl-2-(3-(methylcarbamoyl)pyrrolidin-1-yl)pyrimidine-5-carboxamide], for which the dissociation constant (Kd) (commonly the concentration at which binding is half-saturated) is 0.45 nM and 0.93 nM.

These data come from US20250257051A1, “SUBSTITUTED PYRIMIDINE COMPOUNDS AS TYK2 INHIBITORS” (1910 Genetics Inc., priority 2022, published 2025).
